Experimental findings from patent USRE32519E, “Sulfur-containing isoquinoline derivatives, process for the preparation thereof and pharmaceutical compositions containing them” (Chinoin Gyogyszer es Vegyeszeti Termekek Gyara, priority 1979, dated 1987) are described below.

Where a name gives a salt, the structure may show the parent alone. Read-outs that look alike come from different tables or passages of the source.

One data set concerns the target T1, cyclic oxygenase (Ovis aries, UniProt P05979).
T1 construct: As an enzyme source a homogenizate of sheep spermatocele; from tissue; host or cells: homogenate of sheep 'spermatocele' (read as seminal vesicle)
T1 sequence (P05979 25-600): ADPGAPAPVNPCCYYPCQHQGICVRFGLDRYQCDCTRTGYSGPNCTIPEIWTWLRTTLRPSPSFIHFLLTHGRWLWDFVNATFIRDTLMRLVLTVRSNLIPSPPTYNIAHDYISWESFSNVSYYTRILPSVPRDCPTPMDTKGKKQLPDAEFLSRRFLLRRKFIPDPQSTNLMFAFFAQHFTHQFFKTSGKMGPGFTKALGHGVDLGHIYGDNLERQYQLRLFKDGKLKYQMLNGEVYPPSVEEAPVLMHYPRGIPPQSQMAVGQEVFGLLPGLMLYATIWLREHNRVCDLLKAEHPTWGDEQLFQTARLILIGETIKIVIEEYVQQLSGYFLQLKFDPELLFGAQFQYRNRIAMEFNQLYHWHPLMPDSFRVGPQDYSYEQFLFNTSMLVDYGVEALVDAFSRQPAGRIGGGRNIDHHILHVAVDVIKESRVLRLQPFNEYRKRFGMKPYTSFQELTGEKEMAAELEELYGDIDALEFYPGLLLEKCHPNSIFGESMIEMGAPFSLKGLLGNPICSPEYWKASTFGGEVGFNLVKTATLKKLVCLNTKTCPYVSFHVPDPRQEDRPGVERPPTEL
Briefly: effect on biosynthesis of prostaglandins: activity of cyclic oxygenase, oxygen consumption with arachidonic acid substrate (Clark electrode). As to conditions: for AC50: concentration for 50% increase in oxygen consumption; for EC (100% increase): concentration for 100% increase in oxygen consumption, read-out: AC100%. In kind it is biochemical, sheep. The protocol:
The effect of the compounds of the formula (I) on the biosynthesis of prostaglandins was determined by a known technique (J. Biol. Chem., 246, 6700; 1971). As an enzyme source a homogenizate of sheep spermatocele and as a substrate arachidonic acid were used. The transformation of the substrate, which involves oxygen consumption, was monitored on the basis of the change of the concentration of dissolved oxygen, which was measured by a Clark electrode. During the measurements the concentration of the active compounds, which involved a 50% and 100%, respectively, […] in the oxygen consumption were determined. The concentrations were expressed in μM/lit. The results obtained are contained in the Table below. |The effect of the compounds of the formula |(I) on the activity of cyclic oxygenase |Substrate: arachidonic acid

Data set [1] can be described thus: diuretic activity on rats, quantity of urine passed in 4 hours. In kind it is in vivo. Particulars: 2 mg/kg. dose, compared with 2 mg/kg. p.o. Hypothiazid. As for the experimental part:
The diuretic activity of the compounds of the formula (I) was tested on rats. The quantity of the urine passed in 4 hours and of the discharged Na^+ and K^+ ions were determined by known methods (Arzneimitt. Forsch. 27, 559; 1978). The antiinflammatory activity was tested in paw oedema on rats. The oedema was induced by carrageenien and the inhibition was expressed in %.

A further data set deals with serotonine. Briefly: serotonine antagonistic effect on gastric fundus strip of rats. As to conditions: 10 μg/ml. antagonistic dose.
A short description of data set [2]: acute toxicity (LD50) on mice. As to conditions: mouse, in vivo, po.
In a further data set the test system is paw oedema. Description: antiinflammatory activity, carrageenien-induced paw oedema on rats. In kind it is in vivo. As for the experimental part:
The diuretic activity of the compounds of the formula (I) was tested on rats. The quantity of the urine passed in 4 hours and of the discharged Na^+ and K^+ ions were determined by known methods (Arzneimitt. Forsch. 27, 559; 1978). The antiinflammatory activity was tested in paw oedema on rats. The oedema was induced by […] inhibition was expressed in %.

Data set [3] deals with isolated trachea of guinea pigs. Briefly: relaxant activity on isolated trachea of guinea pigs. As to conditions: for relaxant effect relative to theophylline: 1 μg/ml. dose; for relaxant activity relative to theophylline: related to a 95 to 100% relaxation. The protocol:
According to a test carried out on isolated trachea of guinea pigs (J. Pharm. Pharmac. 31, 798; 1979) the compounds prepared according to the invention have a relaxant activity. […] The activity of the compounds obtained in Example 4 is significant also at a dose of 0.1 μg/ml.

The subject of another data set is acetylcholine. Briefly: antagonistic activity against acetylcholine on ileum of guinea pigs.
In another data set the test system is histamine. Briefly: antagonistic activity against histamine on ileum of guinea pigs. As to conditions: for effect against histamine relative to theophylline: 50 μg/ml. antagonistic dose.

Usually AC50 stands for the concentration giving half of the maximal activity seen. Read a high AC50 as activity only at high concentration. Molecule `COc1cc2c(cc1OC)C(C(C#N)SC(C)C(=O)O)=NCC2` (stereo not drawn) [Example 12, α-(1-carboxy-1-ethyl)-mercapto-6,7-dimethoxy-3,4-dihydro-1-isoquinolyl-acetonitrile] yielded an AC50 on cyclic oxygenase of 105 µM.

On to `COc1cc2c(cc1OC)C(C(C#N)SCC(=O)O)=NCC2` (stereo not drawn) [Example 6, α-carboxymethylmercapto-6,7-dimethoxy-3,4-l-dihydro-1-isoquinolyl-acetonitrile], for which, on cyclic oxygenase, the activity was half-maximal at 60 µM (AC50) and the EC (100% increase) was determined as 225 µM. Besides, the “increase of the quantity of the urine secreted” value in data set [1] is “to the same extent as a 2 mg/kg. p.o. dose of Hypothiazid”. The “inhibition (serotonine antagonistic effect)” value in the data set on serotonine turned out to be 16%. The LD50 in data set [2] (p.o. on mice, read-out: LD50) is more than 500 mg/kg.

For `N#CC(SCC(=O)O)C1=NCCc2ccccc21` (stereo not drawn) [Example 5, α-carboxy-methyl-mercapto-3,4-dihydro-isoquinolyl-acetonitrile], at cyclic oxygenase, half-maximal activity (AC50) was put at 40 µM and the EC (100% increase) was found to be 80 µM.

As for `N#CC(SCCC(=O)O)C1=NCCc2ccccc21` (stereo not drawn) [Example 8, α-(2-carboxyethyl)-mercapto-3,4-dihydro-1-isoquinolyl-acetonitrile], on cyclic oxygenase, the activity was half-maximal at 48 µM (AC50) and the EC (100% increase) came to 96 µM. Besides, the “inhibition (serotonine antagonistic effect)” value in the data set on serotonine is reported as 8%.

As to `COc1cc2c(cc1OC)C(C(C#N)SCCO)=NCC2` (stereo not drawn) [Example 3, α-(2-hydroxy-ethylmercapto)-6,7-dimethoxy-3,4-dihydro-1-isoquinolyl-acetonitrile], on cyclic oxygenase, the AC50 was 100 µM and the EC (100% increase) came to 200 µM. The “inhibition in paw oedema test” value with paw oedema (100 mg/kg dose, rats (route not given)) is 20%. In addition, in data set [2] (per os on mice, read-out: DL), the LD50 is more than 500 mg/kg.

`COc1cc2c(cc1OC)C(C(C#N)SCCC(=O)O)=NCC2` (centres unmarked) [Example 9]: the activity on cyclic oxygenase was half-maximal at 95 µM (AC50). In data set [1], the “increase of the quantity of the urine secreted” value is recorded as “to the same extent as a 2 mg/kg. p.o. dose of Hypothiazid”. In data set [3], the “relaxant effect relative to theophylline” value is on record as “only half of its effect” and the “relaxant activity relative to theophylline” value is on record as “the same activity as theophylline”. In addition, in the data set with acetylcholine (50 μg/ml. antagonistic dose), the “activity against acetylcholine relative to theophylline” value is on record as “the same activity”. In addition, the “maximum inhibition (acetylcholine)” value in the data set with acetylcholine (in a dose of 100 μg/ml.) is recorded as 55%. In the data set with histamine, the “effect against histamine relative to theophylline” value is reported as “the same effect as theophylline”. Moreover, the “maximum inhibition (histamine)” value with histamine (100 μg/ml.) came out at 26%. Besides, in data set [2] (p.o. on mice, read-out: LD50), the LD50 was more than 500 mg/kg.

Regarding `CCN(CC)CCSC(C#N)C1=NCCc2cc(OC)c(OC)cc21` (stereo not drawn) [Example 14, α-(2-diethylaminoethyl)-mercapto-6,7-dimethoxy-3,4-dihydro-1-isoquinolyl-acetonitrile hydrochloride], at cyclic oxygenase, the activity was half-maximal at 280 µM (AC50) and the EC (100% increase) is 395 µM.

With `COc1cc2c(cc1OC)C(C(C#N)SCCN(C)C)=NCC2` (stereo not drawn) [Example 15, α-(2-dimethylaminoethyl)-mercapto-6,7-dimethoxy-3,4-dihydro-1-isoquinolyl-acetonitrile hydrochloride], at cyclic oxygenase, half-maximal activity (AC50) was put at 62 µM and the EC (100% increase) was 124 µM.

`CCOC(=O)CSC(C#N)C1=NCCc2cc(OC)c(OC)cc21` (stereo not drawn) [Example 18, α(ethoxycarbonyl)-methyl-mercapto-6,7-dimethoxy-3,4dihydro-1-isoquinolyl-acetonitrile]: at cyclic oxygenase, the half-maximal activity concentration (AC50) worked out at 69 µM and the EC (100% increase) came to 138 µM.

For the molecule `COc1cc2c(cc1OC)C(C(C#N)SCCCO)=NCC2` (stereo not drawn) [Example 4, α-(3-hydroxy-propylmercapto)-6,7-dimethoxy-3,4-dihydro-1-isoquinolyl-acetonitrile], at cyclic oxygenase, the AC50 is 70 µM and the EC (100% increase) turned out to be 140 µM. For the same molecule, in the data set with paw oedema (100 mg/kg. p.o. dose, rats), the “inhibition in paw oedema test” value stood at 20%. In data set [3], the “relaxant effect relative to theophylline” value was “five-times more effective than theophylline” and the “relaxant activity relative to theophylline” value was “five-times higher activity than theophylline”. Also, the relaxant activity result in data set [3] (dose of 0.1 μg/ml.) is listed as “significant”. Also, in the data set with acetylcholine (50 μg/ml. antagonistic dose), the “activity against acetylcholine relative to theophylline” value was “six-times more active”. In the data set with acetylcholine (in a dose of 50 μg/ml.), the “maximum inhibition (acetylcholine)” value worked out at 100%. The “maximum inhibition (histamine)” value with histamine (50 μg/ml.) turned out to be 100%. The “effect against histamine relative to theophylline” value in the data set with histamine is on record as “six-times more potent”. For the same molecule, the “inhibition (serotonine antagonistic effect)” value with serotonine stood at 80%. In addition, the LD50 in data set [2] (p.o. on mice, read-out: LD50) is more than 500 mg/kg.

Regarding `Cn1c(=O)c2[nH]cnc2n(C)c1=O` [theophylline, reference compound], in the data set with acetylcholine (50 μg/ml. antagonistic dose), the inhibition against acetylcholine is reported as 16%. In addition, the “maximum inhibition (acetylcholine)” value in the data set on acetylcholine (at a dose of 200 μg/ml.) worked out at 30%. In addition, the “inhibition (serotonine antagonistic effect)” value in the data set on serotonine was found to be 8%.

`COc1cc2c(cc1OC)C(C(C#N)SCC(=O)NN)=NCC2` (stereo not drawn) [Example 22, α-(carbohydrazidomethyl)-mercapto-6,7-dimethoxy-3,4-dihydro-1-isoquinolyl-acetonitrile]: at cyclic oxygenase, the concentration at half-maximal activity (AC50) amounted to 720 µM and the EC (100% increase) was found to be 1800 µM.
